Data as given in publication PMC6151529, “Design, Synthesis and Biological Evaluation of N,N-Substituted Amine Derivatives as Cholesteryl Ester Transfer Protein Inhibitors” (Molecules : A Journal of Synthetic Chemistry and Natural …, 2017).

Key:
LDL-C levels = settings: clinical, cited from earlier work
HDL-C levels = settings: clinical, cited from earlier work
CETP = target: T1, CETP (Homo sapiens, UniProt P11597); test: CETP inhibitory activity, BODIPY-CE fluorescence assay (CETP RP Activity Assay Kit); type: biochemical; settings: for IC50: read-out: IC50 (CETP inhibition); for CETP inhibition (in words): BODIPY-CE fluorescence assay
T1 construct: purchased Roar, New York, NY, USA RB-RPAK
T1 sequence (P11597 18-493): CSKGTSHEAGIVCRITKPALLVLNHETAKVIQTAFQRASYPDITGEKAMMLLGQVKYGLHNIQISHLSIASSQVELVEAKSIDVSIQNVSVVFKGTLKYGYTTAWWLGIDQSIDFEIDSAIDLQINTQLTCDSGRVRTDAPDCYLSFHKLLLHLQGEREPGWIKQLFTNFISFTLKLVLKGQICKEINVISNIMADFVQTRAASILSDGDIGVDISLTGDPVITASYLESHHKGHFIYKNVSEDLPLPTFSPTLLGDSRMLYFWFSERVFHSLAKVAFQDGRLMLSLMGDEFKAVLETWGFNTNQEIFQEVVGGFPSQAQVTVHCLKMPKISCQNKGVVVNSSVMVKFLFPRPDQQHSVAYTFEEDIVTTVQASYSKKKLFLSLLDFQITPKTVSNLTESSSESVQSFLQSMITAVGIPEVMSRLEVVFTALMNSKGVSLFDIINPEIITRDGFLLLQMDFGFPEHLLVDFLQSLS
Protocol: All tested compounds were dissolved in 100% DMSO, making sure the compound was dissolved totally. The solution was vibrated hard on an oscillator for more than 30 s and then stored in a nitrogen cabinet. The stock solutions (10 mM) were diluted with DMSO for an 8-point titration (1:5 serial dilutions) in a 96-well dilution plate. […] Compounds were tested at eight concentrations, and the fluorescence intensity were measured using a fluorometer (ExEm = 465/535 nm). The IC50 was determined from a curve fit of the data with each concentration tested three times.

Row | SMILES | IC50 (CETP) [µM] | also measured
1 | COc1cc(F)c(C(C)C)cc1-c1ccc(C(F)(F)F)cc1CN1C(=O)O[C@H](c2cc(C(F)(F)F)cc(C(F)(F)F)c2)[C@@H]1C [Anacetrapib] |  | decrease of LDL-C levels (LDL-C levels; printed as 'to'): 40%; raise of HDL-C levels (HDL-C levels; printed as 'to'): 130%
2 | COc1ccc(C(C)C)cc1C1=C(CN(Cc2cc(C(F)(F)F)cc(C(F)(F)F)c2)c2nn[nH]n2)CC(C)(C)CC1 [Compound 12, N-(3,5-Bis(trifluoromethyl)benzyl)-N-((2-(5-isopropyl-2-methoxyphenyl)-5,5-dimethylcyclohex-1-enyl)-methyl)-2H-tetrazol-5-amine] | 2.84 ± 0.04 | 
3 | COC(=O)Cn1nnc(N(CC2=C(c3cc(C(C)C)ccc3OC)CCC(C)(C)C2)Cc2cc(C(F)(F)F)cc(C(F)(F)F)c2)n1 [Compound 13] | > 50 | 
4 | CCOC(=O)CCCn1nnc(N(CC2=C(c3cc(C(C)C)ccc3OC)CCC(C)(C)C2)Cc2cc(C(F)(F)F)cc(C(F)(F)F)c2)n1 [Compound 14, N-(3,5-Bis(trifluoromethyl)benzyl)-N-((2-(5-isopropyl-2-methoxyphenyl)-5,5-dimethylcyclohex-1-enyl)-methyl)-2H-tetrazol-5-amine-2-butyric acid ethyl ester] | > 50 | 
5 | COc1ccc(C(C)C)cc1C1=C(CN(Cc2cc(C(F)(F)F)cc(C(F)(F)F)c2)c2nnn(CCN)n2)CC(C)(C)CC1 [Compound 15, 2-(2-Aminoethyl)-N-(3,5-Bis(trifluoromethyl)benzyl)-N-((2-(5-isopropyl-2-methoxyphenyl)-5,5-dimethyl-cyclohex-1-enyl)methyl)-2H-tetrazol-5-amine] | 1.92 ± 0.1 | 
6 | COc1ccc(C(C)C)cc1C1=C(CN(Cc2cc(C(F)(F)F)cc(C(F)(F)F)c2)c2nnn(CCS(C)(=O)=O)n2)CC(C)(C)CC1 [Compound 16, N-(3,5-Bis(trifluoromethyl)benzyl)-N-((2-(5-isopropyl-2-methoxyphenyl)-5,5-dimethylcyclohex-1-enyl)-methyl)-2-(2-(methylsulfonyl)ethyl)-2H-tetrazol-5-amine] | 1.2 ± 0.01 | 
7 | COc1ccc(C(C)C)cc1C1=C(CN(Cc2cc(C(F)(F)F)cc(C(F)(F)F)c2)c2nnn(CCCC(=O)O)n2)CC(C)(C)CC1 [Compound 18, N-(3,5-Bis(trifluoromethyl)benzyl)-N-((2-(5-isopropyl-2-methoxyphenyl)-5,5-dimethylcyclohex-1-enyl)-methyl)-2H-tetrazol-5-amine-2-butyric acid] | 1.6 ± 0.02 | 
8 | COc1ccc(C(C)C)cc1C1=C(CN(Cc2cc(C(F)(F)F)cc(C(F)(F)F)c2)c2nnn(CCO)n2)CC(C)(C)CC1 [Compound 19, N-(3,5-Bis(trifluoromethyl)benzyl)-N-((2-(5-isopropyl-2-methoxyphenyl)-5,5-dimethylcyclohex-1-enyl)-methyl)-2H-tetrazol-5-amine-2-ethyl alcohol] | 0.73 ± 0.09 | 
9 | COc1ccc(C(C)C)cc1C1=C(CN(Cc2cc(C(F)(F)F)cc(C(F)(F)F)c2)c2nnn(CCCCO)n2)CC(C)(C)CC1 [Compound 20] | 5.76 ± 0.03 | 
10 | COc1ccc(C(C)C)cc1C1=C(CN(Cc2cc(C(F)(F)F)cc(C(F)(F)F)c2)c2nnn(CC(N)=O)n2)CC(C)(C)CC1 [Compound 21, 2-(5-((3,5-Bis(trifluoromethyl)benzyl)((2-(5-isopropyl-2-methoxyphenyl)-5,5-dimethylcyclohex-1-enyl)-methyl)amino)-2H-tetrazol-2-yl)acetamide] | 20.06 ± 0.12 | 
11 | COc1ccc(C(C)C)cc1C1=C(CN(Cc2cc(C(F)(F)F)cc(C(F)(F)F)c2)c2noc(C)n2)CC(C)(C)CC1 [Compound 22, N-(3,5-Bis(trifluoromethyl)benzyl)-N-((2-(5-isopropyl-2-methoxyphenyl)-5,5-dimethylcyclohex-1-enyl)-methyl)-5-methyl-1,2,4-oxadiazol-3-amine] | 0.72 ± 0.06 | 
12 | COc1ccc(C(C)C)cc1C1=C(CN(Cc2cc(C(F)(F)F)cc(C(F)(F)F)c2)C2CCN(CCO)CC2)CC(C)(C)CC1 [Compound 32, N-(3,5-Bis(trifluoromethyl)benzyl)-N-((2-(5-isopropyl-2-methoxyphenyl)-5,5-dimethylcyclohex-1-enyl)-methyl)piperidin-4-amine-1-ethyl alcohol] | > 50 | 
13 | COc1ccc(C(C)C)cc1C1=C(CN(Cc2cc(C(F)(F)F)cc(C(F)(F)F)c2)C2CCN(CC(=O)O)CC2)CC(C)(C)CC1 [Compound 33, N-(3,5-Bis(trifluoromethyl)benzyl)-N-((2-(5-isopropyl-2-methoxyphenyl)-5,5-dimethylcyclohex-1-enyl)-methyl)piperidin-4-amine-1-acetic acid] | > 50 | 
14 | COc1ccc(C(C)C)cc1C1=C(CN(Cc2cc(C(F)(F)F)cc(C(F)(F)F)c2)C2CCN(C(=O)OC3CCOCC3)CC2)CC(C)(C)CC1 [Compound 34, N-(3,5-Bis(trifluoromethyl)benzyl)-N-((2-(5-isopropyl-2-methoxyphenyl)-5,5-dimethylcyclohex-1-enyl)-methyl)piperidin-4-amine-1-methanoic acid tetrahydro-2H-pyran-4-ol ester] | > 50 | 
15 | CCOC(=O)N1CC(N(CC2=C(c3cc(C(C)C)ccc3OC)CCC(C)(C)C2)Cc2cc(C(F)(F)F)cc(C(F)(F)F)c2)C1 [Compound 35, N-(3,5-Bis(trifluoromethyl)benzyl)-N-((5′-isopropyl-2′-methoxy-4,4-dimethyl-3,4,5,6-tetrahydro-[1,1′-biphenyl]-2-yl)methyl)azetidin-3-amine-1-methanoic acid ethyl ester] | > 50 | 
16 | COc1ccc(C(C)C)cc1C1=C(CN(Cc2cc(C(F)(F)F)cc(C(F)(F)F)c2)C2CN(C(=O)OC(C)C)C2)CC(C)(C)CC1 [Compound 36, N-(3,5-Bis(trifluoromethyl)benzyl)-N-((5′-isopropyl-2′-methoxy-4,4-dimethyl-3,4,5,6-tetrahydro-[1,1′-biphenyl]-2-yl)methyl)azetidin-3-amine-1-methanoic acid isopropyl ester] | > 50 | 
17 | COc1ccc(C(C)C)cc1C1=C(CN(Cc2cc(C(F)(F)F)cc(C(F)(F)F)c2)C2CN(C(=O)OC3CCOCC3)C2)CC(C)(C)CC1 [Compound 37, N-(3,5-Bis(trifluoromethyl)benzyl)-N-((5′-isopropyl-2′-methoxy-4,4-dimethyl-3,4,5,6-tetrahydro-[1,1′-biphenyl]-2-yl)methyl)azetidin-3-amine-1-methanoic acid tetrahydro-2H-pyran-4-ol ester] | > 50 | 
18 | COc1ccc(C(C)C)cc1C1=C(CN(Cc2cc(C(F)(F)F)cc(C(F)(F)F)c2)c2nnn(C)n2)CC(C)(C)CC1 [Compound 40, N-(3,5-Bis(trifluoromethyl)benzyl)-N-((2-(5-isopropyl-2-methoxyphenyl)-5,5-dimethylcyclohex-1-enyl)-methyl)-2-methyl-2H-tetrazol-5-amine] | 0.81 ± 0.03 | 
19 | COc1ccc(C(C)C)cc1C1=C(CN(Cc2cccc(C(F)(F)F)c2)c2nnn(C)n2)CC(C)(C)CC1 [Compound 41, N-((2-(5-Isopropyl-2-methoxyphenyl)-5,5-dimethylcyclohex-1-enyl)methyl)-2-methyl-N-(3-(trifluoromethyl)-benzyl)-2H-tetrazol-5-amine] | 10.05 ± 0.06 | 
20 | COc1ccc(C(C)C)cc1C1=C(CN(Cc2ccc(F)cc2)c2nnn(C)n2)CC(C)(C)CC1 [Compound 42, N-(4-Fluorobenzyl)-N-((2-(5-isopropyl-2-methoxyphenyl)-5,5-dimethylcyclohex-1-enyl)methyl)-2-methyl-2H-tetrazol-5-amine] | > 50 | CETP inhibition (in words) (CETP): no CETP inhibition
21 | COc1ccc(C(C)C)cc1C1=C(CN(Cc2ccc(C(F)(F)F)cc2)c2nnn(C)n2)CC(C)(C)CC1 [Compound 43, N-((2-(5-Isopropyl-2-methoxyphenyl)-5,5-dimethylcyclohex-1-enyl)methyl)-2-methyl-N-(4-(trifluoromethyl)-benzyl)-2H-tetrazol-5-amine] | > 50 | CETP inhibition (in words) (CETP): no CETP inhibition
22 | COc1ccc(C(C)C)cc1C1=C(CN(Cc2ccc(OC(F)(F)F)cc2)c2nnn(C)n2)CC(C)(C)CC1 [Compound 44, N-((2-(5-Isopropyl-2-methoxyphenyl)-5,5-dimethylcyclohex-1-enyl)methyl)-2-methyl-N-(4-(trifluoro-methoxy)benzyl)-2H-tetrazol-5-amine] | > 50 | CETP inhibition (in words) (CETP): no CETP inhibition
23 | CCC(CC)CC1(C(=O)Nc2ccccc2SC(=O)C(C)C)CCCCC1 [Dalcetrapib] |  | effect on LDL-C levels (LDL-C levels): minimal effect; elevation of HDL-C levels (HDL-C levels): up to 30%
24 | Cc1cc(C)c2c(c1)[C@@H](N(Cc1cc(C(F)(F)F)cc(C(F)(F)F)c1)c1nnn(C)n1)CCCN2C[C@H]1CC[C@H](C(=O)O)CC1 [Evacetrapib] |  | decrease of LDL-C (LDL-C levels): up to 36%; raising of HDL-C levels (HDL-C levels): more than 129%
